Results reported in patent US12678451B2, “Cannabinoid and omega fatty acid compositions and methods of using” (GreenWay Herbal Products, LLC, priority 2019, dated 2026).

Key:
[1] = test system: cytokines induced in mice by LPS; test: Mouse LPS cytokine animal model (Example 3), cannabinoids in PB with 5% DMSO; type: in vivo; conditions: 5 mg/kg
Protocol: This experiment was conducted to compare the ability of CBD, CBDA or the 1:1 equimolar mixture of CBD:CBDA to suppress the induction of cytokines whose expression levels were induced in mice by LPS.
The ability of agents to suppress the immune system can be tested in vivo using an LPS mouse model, in which mice are injected with LPS to cause an immune response (Field et al., 1970; Ghezzi P and Sipe J D, 1988).
Four 20 g female C57BL/6 mice were used per group. The experimental mice were first injected with 0.1 mL of the cannabinoids prepared at 1 mg/mL in phosphate buffer (PB) with 5% DMSO to yield a final dose of 5 mg/kg, followed one hour later by the injection of 0.1 mL of 0.02 mg/mL LPS in PB to yield a final dose of 0.1 mg/kg. Mice injected with 0.1 mL of PB with 5% DMSO and 0.1 mL of PBS served as a non-induced control and mice injected with 0.1 mL of PB with 5% DMSO and 0.1 mL of 0.02 mg/mL LPS in PB served as a LPS untreated control. After allowing two hours for the immune system to be induced by LPS, the mice were then euthanized, heart punctures performed to extract the blood, which was allowed to coagulate on ice for 1 hour before centrifuging to isolate the serum. The levels of 32 of the most common mouse cytokines (Eve Technologies, Calgary, Canada, Table 9) were determined by multi-plex analysis.

[2] = test system: cytokine levels in differentiated THP-1 cells treated with LPS; test: THP-1 human cellular LPS cytokine assay, four independent experiments, per cytokine; type: cell-based; conditions: LPS 20 ng/mL
DPPH antioxidant assay = type: biochemical; conditions: 100 μM; for % RSA (radical scavenging activity): 1 hour
Protocol: The ability of the cannabinoids to act as potential antioxidants was assessed using the 2,2-diphenyl-1-picrylhydrazyl (DPPH) antioxidant assay. The cannabinoids CBDA, CBD, CBDVA, CBDV, CBG, THCV, and the 1:1 CBD:CBDA mixture had the highest antioxidant activities with radical scavenging activities of 38.19%, 48.00%, 43.81%, 44.21%, 44.28%, 45.71%, and 43.74%, respectively.
The 2,2-diphenyl-1-picrylhydrazyl (DPPH) free radical (Alfa Aesar) was prepared at 0.1 mM in ethanol. The cannabinoids were tested at a final concentration of 100 uM. 2 uL of 7.5 mM stock solutions of the cannabinoids to be tested in DMSO were added to 148 uL of 0.1 mM DPPH to achieve a final concentration of 100 μM in the assay. Ascorbic acid (Thermo Scientific) at a final concentration of 10 mg/ml was used as a positive control. The reaction mixture was incubated in the dark at room temperature for 1 hour, the absorbance of the mixture was read at 517 nm using a Spectra Max 5M microplate reader (Molecular Devices, LLC, Sunnyvale, Calif., USA) and the absorbance was converted to percent radical scavenging activity (% RSA) using the following formula: % RSA=[(Absorbance of the control−Absorbance of the sample)/(Absorbance of the control)]×100.
Free radical production occurs when the immune system is activated and antioxidants represent potential effective treatments for inflammatory conditions and autoimmune diseases. […] The DPPH antioxidant assay can be used to measure the ability of a compound to scavenge free radicals by measuring the ability of compounds to hydrogenate and reduce DPPH. The DPPH assay was conducted on CBCA, CBDA, CBDVA, CBGA, CBLA, CBNA, THCVA, and their decarboxylated derivatives as well as the 1:1 CBD:CBDA mixture.

[3] = test system: differentiated U-937 cells; test: Human cellular U-937 autophagy induction assay (anti-LC3); type: cell-based; conditions: for Fluorescence (LC3): 1.0 μM, 12 hours; for activation at 1 µM: Homo sapiens, U-937, 12 h, read-out: Induction of autophagy with respect to the untreated control
Protocol: The induction of autophagy was monitored using anti-LC3 antibodies to detect LC3 on the autophagosome in human U-937 pro-monocytic histiocytic lymphoma cells (ATCC, Manassas, Va., USA), which generate morphologies characteristic of macrophages upon induction by various stimuli. U-937 cells were cultured in RPMI-1640 medium with L-glutamine and sodium bicarbonate (Sigma-Aldrich, St Louis, Mo.) supplemented with 10% fetal bovine serum (FBS) and 1% penicillin in 25 cm2 tissue flasks at 37° C. in a 5% CO2 humidified atmosphere and passaged every 2-3 days. U-937 cells were seeded in 96 well plates at 5×10^5 cells/mL and stimulated with 100 ng/mL PMA to induce differentiation for 24 hours. The cells were then treated with the various cannabinoids at 1.0 μM concentrations for 12 hours. 30 μM chloroquine was used as a positive control. After treatment, the cells were fixed using 3.7% formaldehyde in PBS for 15 minutes at room temperature and washed with PBS to remove the fixative. Permeabilization reagent (0.2% Triton X-100 in PBS) (Sigma-Aldrich) was added, the cells were incubated for 15 minutes at room temperature and then the cells were washed with PBS to remove the permeabilization reagent. LC3B rabbit polyclonal antibody (Invitrogen) was added at a final concentration of 0.5 μg/ml for 1 hour at room temperature and the cells were washed with PBS remove the primary antibody. Secondary conjugated goat anti-rabbit polyclonal antibody (Thermo Scientific) was then added at a final concentration of 2.0 μg/ml for 1 hour at room temperature. The cells were washed, Hoechst dye was added to stain the nucleus and the cells were imaged using an Arrayscan VTI high-content screening (HCS) reader (Thermo Scientific) with the appropriate filters and the data was analyzed using the vHCS Scan software.
Chloroquine at a concentration of 30 μM was included as a positive control. The ability to induce autophagy was determined as a percentage with respect to the untreated control.

[4] = test system: cytokine levels in differentiated THP-1 cells treated with LPS; test: THP-1 human cellular LPS cytokine assay, three independent experiments, total averaged suppression; conditions: for inhibition at 2 µM: Homo sapiens, THP-1, 4 h, read-out: % Cytokine Suppression (total averaged)
[5] = test system: cytokines induced in mice by LPS; test: Mouse LPS cytokine model, Example 6D, ALA, DHA and EPA omega-3 samples; type: in vivo; conditions: mouse, in vivo
Protocol: A series of experiments using a mouse LPS cytokine animal model were performed. In the mouse LPS cytokine animal model, mice were injected with LPS, which induced the immune response shortly after the mice were injected with one of the potential anti-inflammatory compounds under evaluation (the “test compound”). The efficacy of the test compound was evaluated based on its ability to reduce expression levels of inflammatory cytokines that were elevated due to the immune response. The test compounds included a cannabinoid, an omega fatty acid, and a cannabinoid-omega fatty acid composition.
The mice were intraperitoneally injected with 0.1 mL of the test compound. One hour later, the mice were intraperitoneally injected with 0.1 mL of LPS in phosphate buffered saline (PBS). Four hours later, a heart puncture was performed and the blood was allowed to clot to generate serum. 0.1 mL of the serum was diluted 1:2 with PBS and stored at −80° C. The serum was then sent to a laboratory where a mouse cytokine array/chemokine array 31-plex (MD31) analysis was performed that analyzed the expression levels of the 32 cytokines/chemokines listed in Table 9, above.
For each considered test compound, the ability of the test compound to suppress each inflammatory cytokine was calculated by determining the percent suppression.
36 female C57BL/6 mice that weighed approximately 20 g each were obtained and allowed to acclimate for one week after arrival with unlimited access to food and water. On the day of the study, the mice were weighed and split into eight groups of four mice each so that the average weight of each group was as close as possible to each other.
All of the omega fatty acid samples that were tested were diluted so the dose was 12.5 mg of total omega fatty acids per mouse. […] The omega fatty acids samples tested included: (1) pollock oil, 456 mg/mL omega unsaturated fatty acids. The pollock oil contained a mixture of anti-inflammatory omega-3, omega-7 and omega-9 unsaturated fatty acids. […] (2) Flaxseed oil, 656 mg/mL anti-inflammatory omega unsaturated fatty acids. The flaxseed oil contained a mixture of anti-inflammatory omega-3 and omega-9 unsaturated fatty acids. The omega-3 and omega-9 unsaturated fatty acids constituted 77.6% and […], respectively, of the anti-inflammatory omega fatty acids contained in the flaxseed oil. A 12.5 mg dose contained 9.7 mg of ALA in the triglyceride form. (3) Mono 2:1 DHA:EPA, 744 mg/mL omega-3 unsaturated fatty acids that were primarily DHA or EPA. A 12.5 mg dose contained 7.81 mg of DHA and 3.91 mg of EPA. The omega-3 unsaturated fatty acids were in the free mono form. […] A 12.5 mg dose contained 3.85 mg of DHA and 7.69 mg of EPA. The omega-3 unsaturated fatty acids were in the free mono form. (5) Tri 2:1 DHA:EPA, 678.9 mg/mL omega-3 unsaturated fatty acids that were primarily DHA or EPA. A 12.5 mg dose contained 7.88 mg of DHA and 3.94 mg of EPA. The omega-3 unsaturated fatty acids were in the triglyceride form. (6) Tri 1:2 DHA:EPA, 678.9 mg/mL omega-3 unsaturated fatty acids that were primarily DHA or EPA. A 12.5 mg dose contained 3.60 mg of DHA and 7.19 mg of EPA. The omega-3 unsaturated fatty acids were in the triglyceride form.

[6] = rats; cited from earlier work

## C=C(C)[C@@H]1CCC(C)=C[C@H]1c1c(O)cc(CCCCC)c(C(=O)O)c1O [CBDA, 2,4-Dihydroxy-3-[(1R,6R)-6-isopropenyl-3-methyl-2-cyclohexen-1-yl]-6-pentylbenzoic acid]
[1]
  Average cytokine suppression: 13.71%
  GM-CSF suppression: 27.86%
  IFNγ suppression: 31.60%
  IL-1β suppression: 11.89%
  IL-2 suppression: 7.82%
  IL-6 suppression: 6.09%
  IL-12β p40 suppression: 58.93%
  IL-13 suppression: 4.16%
  IL-17 suppression: 7.86%
  IP-10 suppression: 4.58%
  KC suppression: 18.15%
  LIF suppression: 28.12%
  M-CSF suppression: −51.56%
  MIP-1α suppression: 14.86%
  MIP-1β suppression: 9.12%
  MIP-2 suppression: 20.19%
  TNF-α suppression: 19.69%
[2]; 2 µM
  EGF suppression: 5.34%
  FGF-β suppression: 30.37%
  Flt-3L suppression: 47.81%
  G-CSF suppression: 77.66%
  GM-CSF suppression: 43.68%
  IFNγ suppression: 60.44%
  IL-1α suppression: 44.04%
  IL-1β suppression: 53.82%
  IL-4 suppression: 10.49%
  IL-6 suppression: 69.39%
  IL-7 suppression: 37.62%
  IL-10 suppression: 23.20%
  IL-12 p70 suppression: 8.24%
  IL-15 suppression: 47.99%
  IL-18 suppression: 37.34%
  IP-10 suppression: 73.87%
  MCP-1 suppression: 54.97%
  MIP-1β suppression: 47.92%
  TNFα suppression: 28.56%
  TNFβ suppression: 45.83%
[2]
  Average cytokine suppression: 42.43%
DPPH antioxidant assay
  radical scavenging activity compared to the untreated control: at least two-fold
  % RSA (radical scavenging activity): 38.19%
[3]
  Fluorescence (LC3): 37.64
  activation at 1 µM: -22%
[4]
  effectiveness at reducing elevated cytokine levels relative to dexamethasone: at least half as effective as dexamethasone
  inhibition at 2 µM: 37.2%

## CCCCCc1cc(O)c2c(c1)OC(C)(C)c1ccc(C)cc1-2 [CBN, 6,6,9-Trimethyl-3-pentyl-6H-benzo[c]chromen-1-ol]
DPPH antioxidant assay
  % RSA (radical scavenging activity): 33.83%
[3]
  Fluorescence (LC3): 40.80
  activation at 1 µM: -15.4%
[4]
  effectiveness at reducing elevated cytokine levels relative to dexamethasone: at least half as effective as dexamethasone
  inhibition at 2 µM: 37%

## CCCCCc1cc2c(c(O)c1C(=O)O)-c1cc(C)ccc1C(C)(C)O2 [CBNA, 1-Hydroxy-6,6,9-trimethyl-3-pentyl-6H-benzo[c]chromene-2-carboxylic acid]
DPPH antioxidant assay
  % RSA (radical scavenging activity): 24.92%
[3]
  Fluorescence (LC3): 36.89
  activation at 1 µM: -23.5%
[4]
  effectiveness at reducing elevated cytokine levels relative to dexamethasone: at least half as effective as dexamethasone
  inhibition at 2 µM: 34%

## CC/C=C\C/C=C\C/C=C\C/C=C\C/C=C\C/C=C\CCC(=O)O [DHA, (4Z,7Z,10Z,13Z,16Z,19Z)-docosa-4,7,10,13,16,19-hexaenoic acid]
[5]
  anti-inflammatory capability among ALA, DHA and EPA: highest anti-inflammatory capability

## CCCc1cc(O)c2c(c1)OC(C)(C)[C@@H]1CCC(C)=C[C@@H]21 [THCV, (6aR,10aR)-6,6,9-trimethyl-3-propyl-6H,6aH,7H,8H,10aH-benzo[c]isochromen-1-ol]
DPPH antioxidant assay
  radical scavenging activity compared to the untreated control: at least two-fold
  % RSA (radical scavenging activity): 45.71%
[3]
  Fluorescence (LC3): 42.14
  activation at 1 µM: -12.7%
[4]
  effectiveness at reducing elevated cytokine levels relative to dexamethasone: at least half as effective as dexamethasone
  inhibition at 2 µM: 34.8%

## CCCc1cc2c(c(O)c1C(=O)O)[C@@H]1C=C(C)CC[C@H]1C(C)(C)O2 [THCVA, (6aR,10aR)-6a,7,8,10a-tetrahydro-1-hydroxy-6,6,9-trimethyl-3-propyl-6H-Dibenzo[b,d] pyran-2-carboxylic acid]
DPPH antioxidant assay
  % RSA (radical scavenging activity): 29.22%
[3]
  Fluorescence (LC3): 66.45
  activation at 1 µM: 37.7%
[4]
  effectiveness at reducing elevated cytokine levels relative to dexamethasone: at least half as effective as dexamethasone
  inhibition at 2 µM: 28.4%

## C[S+](C)[O-] [dimethyl sulfoxide]
[6]
  LD50: 14,500 mg/kg

## CC(O)CO (centres unmarked) [propylene glycol]
[6]
  LD50: 20,000 mg/kg
